In patent publication US9113629B2, “4-amino-6-(4-substituted-phenyl)-picolinates and 6-amino-2-(4-substituted-phenyl)-pyrimidine-4-carboxylates and their use as herbicides” (DOW AGROSCIENCES LLC, priority 2013, dated 2015):
Where two headings read alike, the source gives them in different places.

Assays:
[1] = system: Key Grass and Sedge Weeds as well as Grass Crops; test: Post-emergent Test II herbicidal activity (Table 6); format: in vivo; settings: post-emergence, 336 h; for pest or weed control at 70 g/ha: application rate 70 g ai/ha; for pest or weed control at 140 g/ha: application rate 140 g ai/ha
Procedure, shortened: (§1)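 Foliar application at 187 L/ha to greenhouse-grown seedlings (first or second true leaf); subirrigation thereafter. Visual 0–100% injury at 14 d relative to untreated plants.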

[2] = system: Key Broadleaf Weed and Crop Species; test: Post-emergent Test II herbicidal activity (Table 5); format: in vivo; settings: post-emergence, 336 h, post-emergent, 14 days after application; for pest or weed control at 70 g/ha: 70 g ai/ha; for pest or weed control at 140 g/ha: 140 g ai/ha
Procedure, shortened: as §1

[3] = Triticum aestivum, TRZSS (wheat), read-out: Visual Growth Reduction (%) 14 Days After Application, TRZSS
[4] = CYPES: yellow nutsedge (Cyperus esculentus), read-out: Visual Growth Reduction (%) 14 Days After Application, CYPES
[5] = DIGSA: crabgrass (Digitaria sanguinalis), read-out: Visual Growth Reduction (%) 14 Days After Application, DIGSA
[6] = ECHCG: barnyardgrass (Echinochloa crus-galli), read-out: Visual Growth Reduction (%) 14 Days After Application, ECHCG
[7] = ORYSA: rice (Oryza sativa), read-out: Visual Growth Reduction (%) 14 Days After Application, ORYSA
[8] = SETFA: giant foxtail (Setaria faberi), read-out: Visual Growth Reduction (%) 14 Days After Application, SETFA
[9] = SORVU: grain sorghum (Sorghum vulgare), read-out: Visual Growth Reduction (%) 14 Days After Application, SORVU
[10] = ZEAMX: maize, corn (Zea mays), read-out: Visual Growth Reduction (%) 14 Days After Application, ZEAMX
[11] = ABUTH: velvetleaf (Abutilon theophrasti), read-out: Visual Growth Reduction (%) 14 Days After Application ABUTH
[12] = AMARE: redroot pigweed (Amaranthus retroflexus), read-out: Visual Growth Reduction (%) 14 Days After Application AMARE
[13] = BRSNN: oilseed-rape, canola (Brassica napus), read-out: Visual Growth Reduction (%) 14 Days After Application BRSNN
[14] = CHEAL: lambsquarters (Chenopodium album), read-out: Visual Growth Reduction (%) 14 Days After Application CHEAL
[15] = EPHHL: wild poinsettia (Euphorbia heterophylla), read-out: Visual Growth Reduction (%) 14 Days After Application EPHHL
[16] = HELAN: sunflower (Helianthus annuus), read-out: Visual Growth Reduction (%) 14 Days After Application HELAN
[17] = VIOTR: wild pansy (Viola tricolor), read-out: Visual Growth Reduction (%) 14 Days After Application VIOTR

Work on `Cc1c(-c2ccc(OC(F)F)cc2)nc(C(=O)O)c(Cl)c1N` [Compound 94, 4-Amino-3-chloro-6-(4-(difluoromethoxy)phenyl)-5-methylpicolinic acid] yielded a pest or weed control at 70 g/ha [1, 3] of 0 to 29%, a pest or weed control at 140 g/ha [1, 3] of 0 to 29% and a pest or weed control at 70 g/ha [1, 4] of 0 to 29%. The pest or weed control at 140 g/ha [1, 4] was 0 to 29%, the pest or weed control at 70 g/ha [1, 5] was 0 to 29% and the pest or weed control at 140 g/ha [1, 5] was 0 to 29%. For the same compound, the pest or weed control at 70 g/ha [1, 6] was 0 to 29%, the pest or weed control at 140 g/ha [1, 6] was 0 to 29% and the pest or weed control at 70 g/ha [1, 7] was 0 to 29%. For the same compound, the pest or weed control at 140 g/ha [1, 7] was 0 to 29%, the pest or weed control at 70 g/ha [1, 8] was 0 to 29% and the pest or weed control at 140 g/ha [1, 8] was 0 to 29%. It also gave a pest or weed control at 70 g/ha [1, 9] of 0 to 29%, a pest or weed control at 140 g/ha [1, 9] of 0 to 29% and a pest or weed control at 70 g/ha [1, 10] of 0 to 29%. The pest or weed control at 140 g/ha [1, 10] was 0 to 29%, the pest or weed control at 70 g/ha [2, 11] was 0 to 29% and the pest or weed control at 140 g/ha [2, 11] was 0 to 29%. For the same compound, the pest or weed control at 70 g/ha [2, 12] was 0 to 29%, the pest or weed control at 140 g/ha [2, 12] was 45 to 59% and the pest or weed control at 70 g/ha [2, 13] was 0 to 29%. The pest or weed control at 140 g/ha [2, 13] was 0 to 29%, the pest or weed control at 70 g/ha [2, 14] was 85 to 94% and the pest or weed control at 140 g/ha [2, 14] was 85 to 94%. For the same compound, the pest or weed control at 70 g/ha [2, 15] was 0 to 29%, the pest or weed control at 140 g/ha [2, 15] was 0 to 29% and the pest or weed control at 70 g/ha [2, 16] was 85 to 94%. For the same compound, the pest or weed control at 140 g/ha [2, 16] was 85 to 94%, the pest or weed control at 70 g/ha [2, 17] was 0 to 29% and the pest or weed control at 140 g/ha [2, 17] was 0 to 29%. It also gave a melting point of 158.5 to 159.5 °C.
Work on `COC(=O)c1nc(-c2ccc(I)cc2)c(Cl)c(N)c1Cl` [Compound 96] yielded a pest or weed control at 70 g/ha [1, 3] of 60 to 74%, a pest or weed control at 140 g/ha [1, 3] of 75 to 84% and a pest or weed control at 70 g/ha [1, 4] of 95 to 100%. It also gave a pest or weed control at 140 g/ha [1, 4] of 95 to 100%, a pest or weed control at 70 g/ha [1, 5] of 60 to 74% and a pest or weed control at 140 g/ha [1, 5] of 75 to 84%. The pest or weed control at 70 g/ha [1, 6] was 0 to 29%, the pest or weed control at 140 g/ha [1, 6] was 60 to 74% and the pest or weed control at 70 g/ha [1, 7] was 0 to 29%. The pest or weed control at 140 g/ha [1, 7] was 0 to 29%, the pest or weed control at 70 g/ha [1, 8] was 60 to 74% and the pest or weed control at 140 g/ha [1, 8] was 75 to 84%. It also gave a pest or weed control at 70 g/ha [1, 9] of 85 to 94%, a pest or weed control at 140 g/ha [1, 9] of 85 to 94% and a pest or weed control at 70 g/ha [1, 10] of 75 to 84%. It also gave a pest or weed control at 140 g/ha [1, 10] of 75 to 84%, a pest or weed control at 70 g/ha [2, 11] of 95 to 100% and a pest or weed control at 140 g/ha [2, 11] of 95 to 100%. The pest or weed control at 70 g/ha [2, 12] was 85 to 94%, the pest or weed control at 140 g/ha [2, 12] was 95 to 100% and the pest or weed control at 70 g/ha [2, 13] was 75 to 84%. It also gave a pest or weed control at 140 g/ha [2, 13] of 85 to 94%, a pest or weed control at 70 g/ha [2, 14] of 95 to 100% and a pest or weed control at 140 g/ha [2, 14] of 95 to 100%. The pest or weed control at 70 g/ha [2, 15] was 75 to 84%, the pest or weed control at 140 g/ha [2, 15] was 45 to 59% and the pest or weed control at 70 g/ha [2, 16] was 95 to 100%. The pest or weed control at 140 g/ha [2, 16] was 95 to 100%, the pest or weed control at 70 g/ha [2, 17] was 0 to 29% and the pest or weed control at 140 g/ha [2, 17] was 0 to 29%. For the same compound, the melting point was 187.2 to 189.9 °C.
`C#Cc1ccc(-c2cc(N)c(Cl)c(C(=O)OC)n2)cc1` [Compound 126] showed a pest or weed control at 70 g/ha [1, 3] of 0 to 29%, a pest or weed control at 140 g/ha [1, 3] of 0 to 29% and a pest or weed control at 70 g/ha [1, 4] of 60 to 74%. It also gave a pest or weed control at 140 g/ha [1, 4] of 30 to 44%, a pest or weed control at 70 g/ha [1, 5] of 75 to 84% and a pest or weed control at 140 g/ha [1, 5] of 85 to 94%. The pest or weed control at 70 g/ha [1, 6] was 95 to 100%, the pest or weed control at 140 g/ha [1, 6] was 95 to 100% and the pest or weed control at 70 g/ha [1, 7] was 0 to 29%. It also gave a pest or weed control at 140 g/ha [1, 7] of 0 to 29%, a pest or weed control at 70 g/ha [1, 8] of 0 to 29% and a pest or weed control at 140 g/ha [1, 8] of 75 to 84%. The pest or weed control at 70 g/ha [1, 9] was 75 to 84%, the pest or weed control at 140 g/ha [1, 9] was 85 to 94% and the pest or weed control at 70 g/ha [1, 10] was 0 to 29%. It also gave a pest or weed control at 140 g/ha [1, 10] of 60 to 74%, a pest or weed control at 70 g/ha [2, 11] of 95 to 100% and a pest or weed control at 140 g/ha [2, 11] of 95 to 100%. The pest or weed control at 70 g/ha [2, 12] was 95 to 100%, the pest or weed control at 140 g/ha [2, 12] was 95 to 100% and the pest or weed control at 70 g/ha [2, 13] was 75 to 84%. It also gave a pest or weed control at 140 g/ha [2, 13] of 85 to 94%, a pest or weed control at 70 g/ha [2, 14] of 95 to 100% and a pest or weed control at 140 g/ha [2, 14] of 95 to 100%. It also gave a pest or weed control at 70 g/ha [2, 15] of 95 to 100%, a pest or weed control at 140 g/ha [2, 15] of 95 to 100% and a pest or weed control at 70 g/ha [2, 16] of 85 to 94%. It also gave a pest or weed control at 140 g/ha [2, 16] of 95 to 100%, a pest or weed control at 70 g/ha [2, 17] of 0 to 29% and a pest or weed control at 140 g/ha [2, 17] of 30 to 44%. For the same compound, the melting point was 158.9 to 161.2 °C.
`Nc1c(Cl)c(C(=O)O)nc(-c2ccc(I)cc2)c1Cl` [Compound 173] gave a pest or weed control at 70 g/ha [1, 3] of 60 to 74%, a pest or weed control at 140 g/ha [1, 3] of 60 to 74% and a pest or weed control at 70 g/ha [1, 4] of 95 to 100%. For the same compound, the pest or weed control at 140 g/ha [1, 4] was 95 to 100%, the pest or weed control at 70 g/ha [1, 5] was 60 to 74% and the pest or weed control at 140 g/ha [1, 5] was 75 to 84%. It also gave a pest or weed control at 70 g/ha [1, 6] of 75 to 84%, a pest or weed control at 140 g/ha [1, 6] of 75 to 84% and a pest or weed control at 70 g/ha [1, 7] of 0 to 29%. The pest or weed control at 140 g/ha [1, 7] was 0 to 29%, the pest or weed control at 70 g/ha [1, 8] was 75 to 84% and the pest or weed control at 140 g/ha [1, 8] was 85 to 94%. It also gave a pest or weed control at 70 g/ha [1, 9] of 75 to 84%, a pest or weed control at 140 g/ha [1, 9] of 85 to 94% and a pest or weed control at 70 g/ha [1, 10] of 60 to 74%. The pest or weed control at 140 g/ha [1, 10] was 75 to 84%, the pest or weed control at 70 g/ha [2, 11] was 60 to 74% and the pest or weed control at 140 g/ha [2, 11] was 85 to 94%. It also gave a pest or weed control at 70 g/ha [2, 12] of 85 to 94%, a pest or weed control at 140 g/ha [2, 12] of 95 to 100% and a pest or weed control at 70 g/ha [2, 13] of 85 to 94%. It also gave a pest or weed control at 140 g/ha [2, 13] of 85 to 94%, a pest or weed control at 70 g/ha [2, 14] of 85 to 94% and a pest or weed control at 140 g/ha [2, 14] of 85 to 94%. It also gave a pest or weed control at 70 g/ha [2, 15] of 0 to 29%, a pest or weed control at 140 g/ha [2, 15] of 45 to 59% and a pest or weed control at 70 g/ha [2, 16] of 95 to 100%. The pest or weed control at 140 g/ha [2, 16] was 95 to 100%, the pest or weed control at 70 g/ha [2, 17] was 0 to 29% and the pest or weed control at 140 g/ha [2, 17] was 0 to 29%. For the same compound, the melting point was 188.7 to 190.3 °C.
